Broadly, the pKi is the negative decadic logarithm of the Ki, by convention in mol/L. Broadly, the inhibition is the change of the read-out against control, counted positive when it falls.

The target of assay [1] is Muscarinic acetylcholine receptor M4 (Homo sapiens, UniProt P08173). Kind of assay: GPCRScan assay: inhibition of M4. Also on record: radioligand conc. used [nm] 0.3 – 1.0, parental cells stable CHO.
The target in another assay is D(4) dopamine receptor (Homo sapiens, UniProt P21917). Kind of assay: GPCRScan assay: inhibition of D4. Also on record: radioligand conc. used [nm] 0.6 – 1.7, parental cells Stable HEK.
The target of assay [2] is Muscarinic acetylcholine receptor M3 (Homo sapiens, UniProt P20309). In words: GPCRScan assay: inhibition of M3. Also noted: radioligand conc. used [nm] 0.3 – 1.0, parental cells stable CHO.
Assay [3] has as its target Adenosine Transporter (Cavia porcellus) (UniProt H0V4R7+H0UUG1+H0V3Z5). Kind of assay: Inhibition of Transporter, Adenosine at compound concentration of 10.0 uM in the Eurofins-Panlabs radioligand binding assay (Eurofins_assay_202000). Also on record: ligand concentration 0.5 nM, non-specific ligand with concentration 5 uM Nitrobenzylthioinosine, incubation time 30 min, incubation temperature 25 C. The assay is classed as protein assay. The note with it: Compound concentration 10.0 uM.

The target in assay [4] is Casein kinase II subunit alpha' (Homo sapiens) (UniProt P19784). Kind of assay: CK2alpha2(h) Eurofins Kinase panel. The note with it: Compound concentration 1.0 uM.
The target of assay [5] is Insulin-like growth factor 1 receptor (Homo sapiens) (UniProt P08069). Kind of assay: IGF-1R(h) Eurofins Kinase panel. To be noted: Compound concentration 1.0 uM.
Assay [6] deals with Leukocyte tyrosine kinase receptor (Homo sapiens) (UniProt P29376). Kind of assay: LTK(h) Eurofins Kinase panel. The note with it: Compound concentration 1.0 uM.
In assay [7] the target is T1, Testis-specific serine/threonine-protein kinase 1 (Homo sapiens) (UniProt Q9BXA7).
T1 sequence (whole entry): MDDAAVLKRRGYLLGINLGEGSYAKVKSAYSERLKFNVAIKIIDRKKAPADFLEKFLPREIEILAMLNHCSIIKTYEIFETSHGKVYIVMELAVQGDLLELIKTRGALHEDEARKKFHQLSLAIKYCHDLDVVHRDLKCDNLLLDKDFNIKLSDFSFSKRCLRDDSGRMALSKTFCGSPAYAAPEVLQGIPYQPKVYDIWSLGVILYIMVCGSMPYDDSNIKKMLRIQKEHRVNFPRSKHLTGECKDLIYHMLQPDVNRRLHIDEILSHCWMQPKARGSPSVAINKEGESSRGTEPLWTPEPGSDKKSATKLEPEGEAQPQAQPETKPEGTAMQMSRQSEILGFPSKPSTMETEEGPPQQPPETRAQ
In words: TSSK1(h) Eurofins Kinase panel. The note with it: Compound concentration 1.0 uM.

Assay [8] concerns the target Serine/threonine-protein kinase Chk2 (Homo sapiens) (UniProt O96017). Kind of assay: CHK2(h) Eurofins Kinase panel. The note with it: Compound concentration 1.0 uM.
Assay [9] addresses NT-3 growth factor receptor (Homo sapiens) (UniProt Q16288). In words: TrkC(h) Eurofins Kinase panel. To be noted: Compound concentration 1.0 uM.
Assay [10] deals with Proto-oncogene tyrosine-protein kinase receptor Ret (Homo sapiens) (UniProt P07949). In words: Ret(h) Eurofins Kinase panel. To be noted: Compound concentration 1.0 uM.
Assay [11] deals with Vascular endothelial growth factor receptor 3 (Homo sapiens) (UniProt P35916). Kind of assay: Flt4(h) Eurofins Kinase panel. To be noted: Compound concentration 1.0 uM.
For assay [12], the target named is [Pyruvate dehydrogenase (acetyl-transferring)] kinase isozyme 2, mitochondrial (Homo sapiens) (UniProt Q15119). In words: PDHK2(h) Eurofins Kinase panel. To be noted: Compound concentration 1.0 uM.
In assay [13] the target is Vascular endothelial growth factor receptor 1 (Homo sapiens) (UniProt P17948). In words: Flt1(h) Eurofins Kinase panel. To be noted: Compound concentration 1.0 uM.
Assay [14] has as its target Tyrosine-protein kinase Lyn (Homo sapiens) (UniProt P07948). In words: Lyn(h) Eurofins Kinase panel. The note with it: Compound concentration 1.0 uM.
A further assay has as its target ATR/ATRIP (Homo sapiens) (UniProt Q13535+Q8WXE1). Kind of assay: ATR/ATRIP(h) Eurofins Kinase panel. Format: protein-complex assay. To be noted: Compound concentration 1.0 uM.
The target of a further assay is Mu-type opioid receptor (Homo sapiens, UniProt P35372). The note with it: Compound concentration 10.0 uM.
Assay [15] concerns the target 5-hydroxytryptamine receptor 2B (Homo sapiens, UniProt P41595). To be noted: Compound concentration 10.0 uM.
Assay [16] deals with Sodium-dependent noradrenaline transporter (Homo sapiens, UniProt P23975). The note with it: Compound concentration 10.0 uM.
Assay [17] deals with T2, Alpha-2B adrenergic receptor (Homo sapiens) (UniProt P18089).
T2 sequence (whole entry): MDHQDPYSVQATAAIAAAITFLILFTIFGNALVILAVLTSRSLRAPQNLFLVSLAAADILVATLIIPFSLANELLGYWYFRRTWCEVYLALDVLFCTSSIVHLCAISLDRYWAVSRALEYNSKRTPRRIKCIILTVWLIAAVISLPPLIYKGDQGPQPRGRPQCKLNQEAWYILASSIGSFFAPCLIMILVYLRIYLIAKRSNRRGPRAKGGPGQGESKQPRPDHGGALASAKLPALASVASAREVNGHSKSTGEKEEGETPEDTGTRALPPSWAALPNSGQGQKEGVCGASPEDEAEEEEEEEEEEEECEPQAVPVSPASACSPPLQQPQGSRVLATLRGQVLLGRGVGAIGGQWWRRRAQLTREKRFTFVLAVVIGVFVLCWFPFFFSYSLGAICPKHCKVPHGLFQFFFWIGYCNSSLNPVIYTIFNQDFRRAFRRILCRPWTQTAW
The note with it: Compound concentration 10.0 uM.

Assay [18] deals with T3, Alpha-2C adrenergic receptor (Homo sapiens) (UniProt P18825).
T3 sequence (whole entry): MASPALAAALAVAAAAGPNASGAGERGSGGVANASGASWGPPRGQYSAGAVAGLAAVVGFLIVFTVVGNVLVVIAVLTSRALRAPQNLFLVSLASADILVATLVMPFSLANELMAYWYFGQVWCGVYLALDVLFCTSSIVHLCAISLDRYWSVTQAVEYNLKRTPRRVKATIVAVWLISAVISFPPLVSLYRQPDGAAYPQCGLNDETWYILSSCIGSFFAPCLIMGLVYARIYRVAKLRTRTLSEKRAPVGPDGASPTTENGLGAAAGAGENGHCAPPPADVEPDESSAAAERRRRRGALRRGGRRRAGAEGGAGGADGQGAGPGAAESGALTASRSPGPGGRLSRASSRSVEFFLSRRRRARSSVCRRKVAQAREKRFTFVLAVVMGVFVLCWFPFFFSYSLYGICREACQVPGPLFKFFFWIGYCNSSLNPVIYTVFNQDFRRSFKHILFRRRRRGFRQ
To be noted: Compound concentration 10.0 uM.

Assay [19] concerns the target 5-hydroxytryptamine receptor 2A (Homo sapiens, UniProt P28223). The note with it: Compound concentration 10.0 uM.

Molecules are shown by their SMILES. pKi: −log10 of the molar value.

Chain of D(4) dopamine receptor (P21917 whole entry): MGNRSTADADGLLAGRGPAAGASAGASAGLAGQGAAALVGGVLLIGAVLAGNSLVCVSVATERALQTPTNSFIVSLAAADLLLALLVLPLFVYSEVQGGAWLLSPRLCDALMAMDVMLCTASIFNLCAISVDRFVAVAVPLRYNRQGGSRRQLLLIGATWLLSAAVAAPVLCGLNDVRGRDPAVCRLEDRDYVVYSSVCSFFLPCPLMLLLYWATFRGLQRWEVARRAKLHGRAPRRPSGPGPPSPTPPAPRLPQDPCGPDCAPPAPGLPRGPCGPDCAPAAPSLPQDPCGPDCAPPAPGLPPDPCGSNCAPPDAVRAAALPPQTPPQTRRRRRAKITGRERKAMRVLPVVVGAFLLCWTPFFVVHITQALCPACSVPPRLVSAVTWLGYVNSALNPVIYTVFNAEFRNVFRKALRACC
Chain of Muscarinic acetylcholine receptor M4 (P08173 whole entry): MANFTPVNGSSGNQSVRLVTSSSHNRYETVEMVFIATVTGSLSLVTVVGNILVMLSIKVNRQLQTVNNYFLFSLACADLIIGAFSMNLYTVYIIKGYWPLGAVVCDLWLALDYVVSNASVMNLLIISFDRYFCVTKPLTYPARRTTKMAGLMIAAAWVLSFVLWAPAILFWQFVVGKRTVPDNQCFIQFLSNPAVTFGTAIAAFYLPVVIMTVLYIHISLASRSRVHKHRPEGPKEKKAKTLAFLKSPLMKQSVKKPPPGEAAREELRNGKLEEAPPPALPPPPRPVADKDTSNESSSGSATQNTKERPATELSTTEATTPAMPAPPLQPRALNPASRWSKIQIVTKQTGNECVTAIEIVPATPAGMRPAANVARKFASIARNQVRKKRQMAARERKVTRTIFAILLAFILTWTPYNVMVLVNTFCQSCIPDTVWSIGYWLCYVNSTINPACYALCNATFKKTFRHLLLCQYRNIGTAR
Chain of Muscarinic acetylcholine receptor M3 (P20309 whole entry): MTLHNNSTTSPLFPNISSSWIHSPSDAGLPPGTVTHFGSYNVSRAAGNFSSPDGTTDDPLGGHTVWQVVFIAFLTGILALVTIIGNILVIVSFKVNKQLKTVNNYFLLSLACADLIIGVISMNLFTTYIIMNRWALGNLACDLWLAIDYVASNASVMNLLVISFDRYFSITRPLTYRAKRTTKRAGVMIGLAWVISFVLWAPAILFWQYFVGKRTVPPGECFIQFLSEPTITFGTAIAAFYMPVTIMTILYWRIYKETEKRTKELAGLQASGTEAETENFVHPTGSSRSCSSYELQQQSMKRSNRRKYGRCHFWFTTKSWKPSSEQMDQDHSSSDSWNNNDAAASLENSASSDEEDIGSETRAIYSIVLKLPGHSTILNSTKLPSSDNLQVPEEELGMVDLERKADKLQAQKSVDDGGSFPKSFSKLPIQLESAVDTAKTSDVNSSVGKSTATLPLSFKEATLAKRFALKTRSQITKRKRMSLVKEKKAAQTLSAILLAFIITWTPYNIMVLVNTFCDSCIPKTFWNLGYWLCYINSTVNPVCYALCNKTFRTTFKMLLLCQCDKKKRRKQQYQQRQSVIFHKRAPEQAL
Chain of Serine/threonine-protein kinase Chk2 (Homo sapiens) (O96017 whole entry): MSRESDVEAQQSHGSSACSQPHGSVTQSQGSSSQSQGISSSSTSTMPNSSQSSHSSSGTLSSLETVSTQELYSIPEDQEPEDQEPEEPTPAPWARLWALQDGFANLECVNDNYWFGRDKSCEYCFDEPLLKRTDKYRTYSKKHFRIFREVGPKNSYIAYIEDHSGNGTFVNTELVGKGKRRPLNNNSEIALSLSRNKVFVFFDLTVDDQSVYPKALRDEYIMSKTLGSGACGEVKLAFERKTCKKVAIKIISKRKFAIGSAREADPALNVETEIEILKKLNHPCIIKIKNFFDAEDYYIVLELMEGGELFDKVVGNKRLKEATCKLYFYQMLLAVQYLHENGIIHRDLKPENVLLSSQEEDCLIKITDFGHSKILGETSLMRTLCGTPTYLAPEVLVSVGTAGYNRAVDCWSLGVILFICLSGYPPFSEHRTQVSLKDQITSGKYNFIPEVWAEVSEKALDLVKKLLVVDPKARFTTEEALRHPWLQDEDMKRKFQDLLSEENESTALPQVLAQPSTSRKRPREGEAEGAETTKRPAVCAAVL
Chain of 5-hydroxytryptamine receptor 2A (P28223 whole entry): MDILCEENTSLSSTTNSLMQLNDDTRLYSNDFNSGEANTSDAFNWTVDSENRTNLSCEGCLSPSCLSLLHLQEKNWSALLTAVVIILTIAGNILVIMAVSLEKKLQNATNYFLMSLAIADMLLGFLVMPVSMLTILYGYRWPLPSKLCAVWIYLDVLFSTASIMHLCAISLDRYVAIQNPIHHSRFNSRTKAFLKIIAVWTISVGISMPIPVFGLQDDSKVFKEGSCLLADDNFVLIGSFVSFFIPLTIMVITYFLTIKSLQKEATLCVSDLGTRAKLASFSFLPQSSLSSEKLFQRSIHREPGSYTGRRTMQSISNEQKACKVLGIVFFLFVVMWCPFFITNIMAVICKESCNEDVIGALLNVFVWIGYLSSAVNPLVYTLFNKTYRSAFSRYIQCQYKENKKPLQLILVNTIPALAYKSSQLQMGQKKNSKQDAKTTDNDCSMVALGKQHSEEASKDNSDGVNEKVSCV
Chain of Insulin-like growth factor 1 receptor (Homo sapiens) (P08069 31-736 limits assumed): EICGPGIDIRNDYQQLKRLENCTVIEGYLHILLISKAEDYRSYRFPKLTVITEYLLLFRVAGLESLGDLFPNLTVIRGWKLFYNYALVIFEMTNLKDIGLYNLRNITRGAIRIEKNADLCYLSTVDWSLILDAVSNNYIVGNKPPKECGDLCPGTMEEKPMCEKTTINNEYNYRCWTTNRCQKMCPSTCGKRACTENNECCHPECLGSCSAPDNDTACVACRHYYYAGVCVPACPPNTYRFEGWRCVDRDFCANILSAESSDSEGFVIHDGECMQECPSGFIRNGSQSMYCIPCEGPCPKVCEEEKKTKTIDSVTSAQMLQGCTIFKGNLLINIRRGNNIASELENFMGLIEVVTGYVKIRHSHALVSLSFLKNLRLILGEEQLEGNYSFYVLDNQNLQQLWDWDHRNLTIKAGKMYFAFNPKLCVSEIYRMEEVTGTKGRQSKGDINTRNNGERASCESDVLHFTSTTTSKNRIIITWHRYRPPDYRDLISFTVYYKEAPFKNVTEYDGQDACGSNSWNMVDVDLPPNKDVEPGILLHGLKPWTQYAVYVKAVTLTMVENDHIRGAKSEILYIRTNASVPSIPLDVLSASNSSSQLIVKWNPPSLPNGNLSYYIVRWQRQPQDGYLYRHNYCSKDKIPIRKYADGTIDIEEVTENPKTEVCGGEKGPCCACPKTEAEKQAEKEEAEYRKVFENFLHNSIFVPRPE
Chain of Insulin-like growth factor 1 receptor (Homo sapiens) (P08069 741-1367 limits assumed): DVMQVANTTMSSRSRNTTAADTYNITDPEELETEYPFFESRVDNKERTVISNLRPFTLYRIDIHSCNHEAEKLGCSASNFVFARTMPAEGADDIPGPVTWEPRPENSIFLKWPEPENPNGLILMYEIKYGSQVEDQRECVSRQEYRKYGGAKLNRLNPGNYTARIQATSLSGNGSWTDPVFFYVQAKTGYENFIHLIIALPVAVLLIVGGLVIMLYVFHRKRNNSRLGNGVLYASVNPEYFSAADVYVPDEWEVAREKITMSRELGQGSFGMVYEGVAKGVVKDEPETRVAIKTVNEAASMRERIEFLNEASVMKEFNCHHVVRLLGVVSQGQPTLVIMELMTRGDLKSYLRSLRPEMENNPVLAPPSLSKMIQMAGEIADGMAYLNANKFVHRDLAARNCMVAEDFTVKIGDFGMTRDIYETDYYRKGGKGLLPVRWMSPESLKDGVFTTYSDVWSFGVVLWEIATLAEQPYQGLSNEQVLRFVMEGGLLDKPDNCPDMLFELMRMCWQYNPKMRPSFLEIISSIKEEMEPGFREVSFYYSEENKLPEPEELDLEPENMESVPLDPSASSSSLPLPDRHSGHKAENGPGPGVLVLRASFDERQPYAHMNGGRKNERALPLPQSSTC
Chain of Tyrosine-protein kinase Lyn (Homo sapiens) (P07948 2-512 limits assumed): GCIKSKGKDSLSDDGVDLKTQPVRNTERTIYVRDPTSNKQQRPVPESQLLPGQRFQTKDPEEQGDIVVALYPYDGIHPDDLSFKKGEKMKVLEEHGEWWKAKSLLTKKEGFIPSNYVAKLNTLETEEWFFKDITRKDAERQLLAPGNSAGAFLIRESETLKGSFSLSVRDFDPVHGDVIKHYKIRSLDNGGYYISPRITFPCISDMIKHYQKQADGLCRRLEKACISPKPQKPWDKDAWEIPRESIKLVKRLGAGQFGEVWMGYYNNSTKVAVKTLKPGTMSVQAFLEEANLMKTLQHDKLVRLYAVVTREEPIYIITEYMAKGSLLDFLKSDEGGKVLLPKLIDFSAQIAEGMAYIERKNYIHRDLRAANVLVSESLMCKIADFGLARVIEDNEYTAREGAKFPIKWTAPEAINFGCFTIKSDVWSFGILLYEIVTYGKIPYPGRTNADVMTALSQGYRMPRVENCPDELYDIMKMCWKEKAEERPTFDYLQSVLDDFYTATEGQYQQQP
Chain of Casein kinase II subunit alpha' (Homo sapiens) (P19784 whole entry, looked up): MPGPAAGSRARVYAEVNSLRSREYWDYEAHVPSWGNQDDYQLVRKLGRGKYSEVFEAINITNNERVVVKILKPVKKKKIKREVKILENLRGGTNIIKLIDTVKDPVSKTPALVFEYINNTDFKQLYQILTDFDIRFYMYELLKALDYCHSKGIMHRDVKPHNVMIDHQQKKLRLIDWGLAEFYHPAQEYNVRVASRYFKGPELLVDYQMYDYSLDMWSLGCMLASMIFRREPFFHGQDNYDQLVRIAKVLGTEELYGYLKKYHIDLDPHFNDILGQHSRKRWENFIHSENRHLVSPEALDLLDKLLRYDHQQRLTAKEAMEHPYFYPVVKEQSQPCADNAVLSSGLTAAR

As for `CNCc1ccccc1-c1csc([C@H](C)Nc2nc(C)nc3cc(OC)c(OC)cc23)c1` [BAY-294], in [1] (read-out: Ki), the pKi is 6.52. Also, the Ki in assay [1] (read-out: pKi (converted)) is 292 nM.

For the molecule `CNCc1ccccc1-c1csc([C@@H](C)Nc2nc(C)nc3cc(OC)c(OC)cc23)c1` [BAY-293], the pKi on D(4) dopamine receptor (read-out: Ki) is 5.57; in assay [2] (read-out: Ki), 6.01. Besides, the figures for the Ki (on D(4) dopamine receptor (read-out: pKi (converted)); in assay [2] (read-out: pKi (converted))) were 2630 nM and 955 nM, respectively. The inhibition in [3] is 62%; on Mu-type opioid receptor it was 93%; in [15], 100%; in [16], 86%; in [17], 85%; in assay [18], 99%. Also, the inhibition in assay [19] was 110%. Further, the % residual kinase activity in [4] was 67%; in assay [5], 74%; in [6], 75%; in assay [7], 79%; in assay [8] it was 80%; in assay [9], 80%. Moreover, the % residual kinase activity was 81% in [10]; 82% in assay [11]; 85% in [12]; 88% in assay [13]; 88% in assay [14]; 88% at ATR/ATRIP (Homo sapiens).
